# Source: US11420956B2, “Ureas having Androgen Receptor degradation activity and uses thereof” (ACCUTAR BIOTECHNOLOGY INC., priority 2019, dated 2022)
# Substitutions are numbered along the chain they refer to.
# Molecular target: T1, androgen receptor (AR) (Homo sapiens, UniProt P10275, T878A)
# T1 construct: endogenous in cells; host or cells: LNCAP
# T1 sequence (P10275 1-920 T878A): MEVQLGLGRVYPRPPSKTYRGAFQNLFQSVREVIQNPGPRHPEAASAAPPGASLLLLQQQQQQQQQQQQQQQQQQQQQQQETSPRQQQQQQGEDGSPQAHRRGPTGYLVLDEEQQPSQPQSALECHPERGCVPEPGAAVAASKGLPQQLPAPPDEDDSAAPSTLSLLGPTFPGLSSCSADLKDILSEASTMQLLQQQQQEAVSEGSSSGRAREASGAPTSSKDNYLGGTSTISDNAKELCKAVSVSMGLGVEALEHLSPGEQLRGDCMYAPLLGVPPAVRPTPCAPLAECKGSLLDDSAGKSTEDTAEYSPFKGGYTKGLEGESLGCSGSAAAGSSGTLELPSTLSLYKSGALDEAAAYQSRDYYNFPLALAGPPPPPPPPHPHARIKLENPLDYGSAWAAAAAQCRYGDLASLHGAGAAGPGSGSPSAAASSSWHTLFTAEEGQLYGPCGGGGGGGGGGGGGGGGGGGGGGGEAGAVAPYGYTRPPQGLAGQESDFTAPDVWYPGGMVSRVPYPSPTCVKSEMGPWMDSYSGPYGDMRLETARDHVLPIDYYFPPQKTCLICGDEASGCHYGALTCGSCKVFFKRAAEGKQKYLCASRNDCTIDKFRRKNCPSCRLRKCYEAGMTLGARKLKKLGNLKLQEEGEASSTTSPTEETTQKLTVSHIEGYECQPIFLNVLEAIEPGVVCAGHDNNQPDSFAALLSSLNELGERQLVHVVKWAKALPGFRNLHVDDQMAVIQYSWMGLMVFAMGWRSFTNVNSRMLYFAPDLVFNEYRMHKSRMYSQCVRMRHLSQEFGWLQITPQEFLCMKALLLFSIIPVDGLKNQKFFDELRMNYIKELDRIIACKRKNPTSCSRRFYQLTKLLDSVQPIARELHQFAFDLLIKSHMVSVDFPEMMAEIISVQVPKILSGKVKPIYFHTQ
# Assay: AR degradation in LNCAP cells (Western blot)
# Assay type: cell-based
# Settings: 24 hours after administration
# Experimental: (§1) LNCAP, VCAP and 22Rv1 cells were plated in 24-well plates at 1.5×10E5 cells/well in the RPMI growth medium containing 10% FBS and 1% Penicillin Streptomycin, and then incubated at 37° C. overnight. The following day, the test compound was administered to the cells by using 1000× compound stock solution prepared in DMSO at various concentrations. After administration of the compound, the cells were then incubated at 37° C. for 24 hours. Upon completion, the cells were washed with PBS and protein was collected in Laemmli sample buffer (1×; VWR International). Proteins in cell lysate were separated by SDS-PAGE and transferred to Odyssey nitrocellulose membranes (Licor) with iblot® dry blotting transfer system (ThermoFisher). Nonspecific binding was blocked by incubating membranes with Intercept Blocking Buffer (Licor) for 1 hour at room temperature with gentle shaking. The membranes were then incubated overnight at 4° C. with Primary antibodies rabbit anti-AR (1:1,000, Cell Signaling, 5153) and mouse anti-GAPDH (1:5,000, Santa Cruz Biotechnology, sc-47724) diluted in Intercept Blocking Buffer containing 0.1% Tween 20. After washing 3 times with TBS-T, the membranes were incubated with IRDye® […] goat anti-mouse IgG (1:20,000, Licor) or IRDye® […] goat anti-rabbit IgG (1:20,000, Licor) for 1 hour. After TBS-T washes, membranes were rinsed in TBS and scanned on Odyssey® CLx Imaging System (Licor). The bands were quantified using Image Studio™ Software (Licor).
# (§2) Tables 5 and 6 summarize the androgen receptor (AR) degradative activity of exemplary compounds in LNCAP, VCAP and 22Rv1 cell lines 24 hours after administration. DC50: compound concentration needed for 50% target protein degradation.
row,Compound,DC50 [nM]
1,"C[C@@H]1CN(c2ccc(C#N)c(C(F)(F)F)c2)[C@@H](C)CN1C(=O)Nc1ccc(N2CCC(CN3CCN(c4ccc5c(c4)C(=O)N(C4CCC(=O)NC4=O)C5=O)CC3)CC2)nc1 (stereo partly drawn) [Compound 1-30, (2R,5S)-4-(4-cyano-3-(trifluoromethyl)phenyl)-N-(6-(4-((4-(2-(2,6-dioxopiperidin-3-yl)-1,3-dioxoisoindolin-5-yl)piperazin-1-yl)methyl)piperidin-1-yl)pyridin-3-yl)-2,5-dimethylpiperazine-1-carboxamide]",≤ 10
2,"C[C@@H]1CN(c2ccc(C#N)c3ncccc23)[C@@H](C)CN1C(=O)Nc1ccc(N2CCC(CN3CCN(c4ccc5c(c4)CN([C@H]4CCC(=O)NC4=O)C5=O)CC3)CC2)nc1 [Compound 2-11, (2R,5S)-4-(8-cyanoquinolin-5-yl)-N-(6-(4-((4-(2-((S)-2,6-dioxopiperidin-3-yl)-1-oxoisoindolin-5-yl)piperazin-1-yl)methyl)piperidin-1-yl)pyridin-3-yl)-2,5-dimethylpiperazine-1-carboxamide]",> 100
3,"CC(C)N(CC1CCN(c2ncc(NC(=O)N3C[C@H](C)N(c4ccc(C#N)c5ncccc45)C[C@H]3C)cn2)CC1)C1CC(Oc2ccc3c(c2)C(=O)N(C2CCC(=O)NC2=O)C3=O)C1 (stereo partly drawn) [Compound 2-14, (2R,5S)-4-(8-cyanoquinolin-5-yl)-N-(2-(4-((((1r,3r)-3-((2-(2,6-dioxopiperidin-3-yl)-1,3-dioxoisoindolin-5-yl)oxy)cyclobutyl)(isopropyl)amino)methyl)piperidin-1-yl)pyrimidin-5-yl)-2,5-dimethylpiperazine-1-carboxamide]",≤ 10
4,"C[C@@H]1CN(c2ccc(C#N)c3ncccc23)[C@@H](C)CN1C(=O)Nc1ccc(N2CCC(CN3CCN(c4ccc5c(c4)C(=O)N(C4CCC(=O)NC4=O)C5=O)CC3)CC2)nc1 (stereo partly drawn) [Compound 2-9, (2R,5S)-4-(8-cyanoquinolin-5-yl)-N-(6-(4-((4-(2-(2,6-dioxopiperidin-3-yl)-1,3-dioxoisoindolin-5-yl)piperazin-1-yl)methyl)piperidin-1-yl)pyridin-3-yl)-2,5-dimethylpiperazine-1-carboxamide]",> 100
5,"C[C@@H]1CN(c2ccc(C#N)c(Cl)c2)[C@@H](C)CN1C(=O)Nc1cnc(N2CCC(CN3CCN(c4ccc5c(c4)CN([C@H]4CCC(=O)NC4=O)C5=O)CC3)CC2)nc1 [Compound 1-51, (2R,5S)-4-(3-chloro-4-cyanophenyl)-N-(2-(4-((4-(2-((S)-2,6-dioxopiperidin-3-yl)-1-oxoisoindolin-5-yl)piperazin-1-yl)methyl)piperidin-1-yl)pyrimidin-5-yl)-2,5-dimethylpiperazine-1-carboxamide]",≤ 10
6,"C[C@@H]1CN(c2ccc(C#N)c3ncccc23)[C@@H](C)CN1C(=O)Nc1ccc(N2CCC(CN3CCN(c4ccc5c(c4)C(=O)N(C4CCC(=O)NC4=O)C5=O)CC3)CC2)c(F)c1 (stereo partly drawn) [Compound 2-12, (2R,5S)-4-(8-cyanoquinolin-5-yl)-N-(4-(4-((4-(2-(2,6-dioxopiperidin-3-yl)-1,3-dioxoisoindolin-5-yl)piperazin-1-yl)methyl)piperidin-1-yl)-3-fluorophenyl)-2,5-dimethylpiperazine-1-carboxamide]",> 100
7,"C[C@@H]1CN(c2ccc(C#N)c(Cl)c2)[C@@H](C)CN1C(=O)Nc1ccc(N2CCC(CN3CCN(c4cc5c(cc4F)C(=O)N([C@H]4CCC(=O)NC4=O)C5)CC3)CC2)c(F)c1 [Compound 1-56, (2R,5S)-4-(3-chloro-4-cyanophenyl)-N-(4-(4-((4-(2-((S)-2,6-dioxopiperidin-3-yl)-6-fluoro-1-oxoisoindolin-5-yl)piperazin-1-yl)methyl)piperidin-1-yl)-3-fluorophenyl)-2,5-dimethylpiperazine-1-carboxamide]",≤ 10
8,"C[C@@H]1CN(c2ccc(C#N)c(Cl)c2)[C@@H](C)CN1C(=O)Nc1ccc(N2CCC(CCN3CCN(c4ccc5c(c4)C(=O)N(C4CCC(=O)NC4=O)C5=O)CC3)CC2)nc1 (stereo partly drawn) [Compound 1-19, (2R,5S)-4-(3-chloro-4-cyanophenyl)-N-(6-(4-(2-(4-(2-(2,6-dioxopiperidin-3-yl)-1,3-dioxoisoindolin-5-yl)piperazin-1-yl)ethyl)piperidin-1-yl)pyridin-3-yl)-2,5-dimethylpiperazine-1-carboxamide]",≤ 10
9,"C[C@@H]1CN(c2ccc(C#N)c(Cl)c2)[C@@H](C)CN1C(=O)Nc1ccc(N2CCC(CN3CCN(c4ccc5c(c4)CN([C@H]4CCC(=O)NC4=O)C5=O)CC3)CC2)c(F)c1 [Compound 1-46, (2R,5S)-4-(3-chloro-4-cyanophenyl)-N-(4-(4-((4-(2-((S)-2,6-dioxopiperidin-3-yl)-1-oxoisoindolin-5-yl)piperazin-1-yl)methyl)piperidin-1-yl)-3-fluorophenyl)-2,5-dimethylpiperazine-1-carboxamide]",≤ 10
10,"CCN(CC1CCN(c2ccc(NC(=O)N3C[C@H](C)N(c4ccc(C#N)c(Cl)c4)C[C@H]3C)cn2)CC1)C1CC(Oc2ccc3c(c2)C(=O)N(C2CCC(=O)NC2=O)C3=O)C1 (stereo partly drawn) [Compound 1-10, (2R,5S)-4-(3-chloro-4-cyanophenyl)-N-(6-(4-((((1r,3r)-3-((2-(2,6-dioxopiperidin-3-yl)-1,3-dioxoisoindolin-5-yl)oxy)cyclobutyl)(ethyl)amino)methyl)piperidin-1-yl)pyridin-3-yl)-2,5-dimethylpiperazine-1-carboxamide]",10 to 100
11,"C[C@@H]1CN(c2ccc(C#N)c3ncccc23)[C@@H](C)CN1C(=O)Nc1cnc(N2CCC(CN3CCN(c4ccc5c(c4)C(=O)N(C4CCC(=O)NC4=O)C5=O)CC3)CC2)nc1 (stereo partly drawn) [Compound 2-8, (2R,5S)-4-(8-cyanoquinolin-5-yl)-N-(2-(4-((4-(2-(2,6-dioxopiperidin-3-yl)-1,3-dioxoisoindolin-5-yl)piperazin-1-yl)methyl)piperidin-1-yl)pyrimidin-5-yl)-2,5-dimethylpiperazine-1-carboxamide]",> 100

# Molecular target: T2, androgen receptor (AR) (Homo sapiens, UniProt P10275)
# T2 construct: endogenous in cells; host or cells: VCAP
# T2 sequence (P10275 1-920): T1 sequence (P10275 1-920 T878A) with A878T
# Assay: AR degradation in VCAP cells (Western blot)
# Assay type: cell-based
# Settings: 24 hours after administration
# Experimental: as §1, §2
row,Compound,DC50 [nM]
1,"C[C@@H]1CN(c2ccc(C#N)c(C(F)(F)F)c2)[C@@H](C)CN1C(=O)Nc1ccc(N2CCC(CN3CCN(c4ccc5c(c4)C(=O)N(C4CCC(=O)NC4=O)C5=O)CC3)CC2)nc1 (stereo partly drawn) [Compound 1-30, (2R,5S)-4-(4-cyano-3-(trifluoromethyl)phenyl)-N-(6-(4-((4-(2-(2,6-dioxopiperidin-3-yl)-1,3-dioxoisoindolin-5-yl)piperazin-1-yl)methyl)piperidin-1-yl)pyridin-3-yl)-2,5-dimethylpiperazine-1-carboxamide]",≤ 10
